Patent US9149038B2, “4-amino-6-(heterocyclic)picolinates and 6-amino-2-(heterocyclic)pyrimidine-4-carboxylates and their use as herbicides” (Dow AgroSciences LLC, priority 2013, dated 2015)
Read-outs that look alike come from different tables or passages of the source.

Experiments:
[1] = tested on: Key Broadleaf Weed and Crop Species; assay: Post-Emergent Test II: postemergent herbicidal activity, visual rating after 14 d (Table 7); type: in vivo; conditions: post-emergence, 336 h; for pest or weed control at 35 g/ha: 35 g ai/ha; for pest or weed control at 70 g/ha: 70 g ai/ha; for pest or weed control at 140 g/ha: 140 g ai/ha
In short: (§1)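 Post-emergence foliar spray, 187 L/ha, first/second true leaf stage plants in potting mix (pH 6.0-6.8). Rates: top rate and 2-fold serial dilutions to 1/16×. Solvent-blank controls. Readout: visual % kill at 14 d.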

[2] = tested on: Key Grass and Sedge Weeds as well as Grass Crops; assay: Post-Emergent Test II: postemergent herbicidal activity, visual rating after 14 d (Table 8); type: in vivo; conditions: post-emergence, 336 h; for pest or weed control at 35 g/ha: 35 g ai/ha; for pest or weed control at 70 g/ha: 70 g ai/ha; for pest or weed control at 140 g/ha: 140 g ai/ha
In short: as §1

[3] = lambsquarters (Chenopodium album), read-out: Visual Growth Reduction (%) 14 Days After Application CHEAL
[4] = oilseed rape, canola (Brassica napus), read-out: Visual Growth Reduction (%) 14 Days After Application BRSNN
[5] = redroot pigweed (Amaranthus retroflexus), read-out: Visual Growth Reduction (%) 14 Days After Application AMARE
[6] = sunflower (Helianthus annuus), read-out: Visual Growth Reduction (%) 14 Days After Application HELAN
[7] = velvetleaf (Abutilon theophrasti), read-out: Visual Growth Reduction (%) 14 Days After Application ABUTH
[8] = wild poinsettia (Euphorbia heterophylla), read-out: Visual Growth Reduction (%) 14 Days After Application EPHHL
[9] = barnyardgrass (Echinochloa crus-galli), read-out: Visual Growth Reduction (%) 14 Days After Application ECHCG
[10] = giant foxtail (Setaria faberi), read-out: Visual Growth Reduction (%) 14 Days After Application SETFA
[11] = maize, corn (Zea mays), read-out: Visual Growth Reduction (%) 14 Days After Application ZEAMX
[12] = rice (Oryza sativa), read-out: Visual Growth Reduction (%) 14 Days After Application ORYSA
[13] = wheat, spring (Triticum aestivum), read-out: Visual Growth Reduction (%) 14 Days After Application TRZAS
[14] = yellow nutsedge (Cyperus esculentus), read-out: Visual Growth Reduction (%) 14 Days After Application CYPES

Q: With `Nc1cc(-c2cc(F)c3c(c2)OC(F)(F)O3)nc(C(=O)O)c1Cl` [Compound 44] as the compound, how does the pest or weed control at 35 g/ha [1, 3] read?
A: 0 to 29%

Q: And the pest or weed control at 70 g/ha [1, 3]?
A: 0 to 29%

Q: And the pest or weed control at 140 g/ha [1, 3]?
A: 0 to 29%

Q: What about the pest or weed control at 35 g/ha [1, 4] of the same compound?
A: 0 to 29%

Q: What about the pest or weed control at 70 g/ha [1, 4] of the same compound?
A: 0 to 29%

Q: And the pest or weed control at 140 g/ha [1, 4]?
A: 0 to 29%

Q: And the pest or weed control at 35 g/ha [1, 5]?
A: 0 to 29%

Q: What about the pest or weed control at 70 g/ha [1, 5] of the same compound?
A: 0 to 29%

Q: And the pest or weed control at 140 g/ha [1, 5]?
A: 0 to 29%

Q: And the pest or weed control at 35 g/ha [1, 6]?
A: 0 to 29%

Q: And the pest or weed control at 70 g/ha [1, 6]?
A: 0 to 29%

Q: And the pest or weed control at 140 g/ha [1, 6]?
A: 0 to 29%

Q: What about the pest or weed control at 35 g/ha [1, 7] of the same compound?
A: 0 to 29%

Q: And the pest or weed control at 70 g/ha [1, 7]?
A: 0 to 29%

Q: And the pest or weed control at 140 g/ha [1, 7]?
A: 0 to 29%

Q: What about the pest or weed control at 35 g/ha [1, 8] of the same compound?
A: 0 to 29%

Q: And the pest or weed control at 70 g/ha [1, 8]?
A: 0 to 29%

Q: What about the pest or weed control at 140 g/ha [1, 8] of the same compound?
A: 0 to 29%

Q: And the pest or weed control at 35 g/ha [2, 9]?
A: 60 to 74%

Q: What about the pest or weed control at 70 g/ha [2, 9] of the same compound?
A: 60 to 74%

Q: What about the pest or weed control at 140 g/ha [2, 9] of the same compound?
A: 75 to 84%

Q: What about the pest or weed control at 35 g/ha [2, 10] of the same compound?
A: 0 to 29%

Q: What about the pest or weed control at 70 g/ha [2, 10] of the same compound?
A: 0 to 29%

Q: And the pest or weed control at 140 g/ha [2, 10]?
A: 0 to 29%

Q: What about the pest or weed control at 35 g/ha [2, 11] of the same compound?
A: 0 to 29%

Q: What about the pest or weed control at 70 g/ha [2, 11] of the same compound?
A: 0 to 29%

Q: And the pest or weed control at 140 g/ha [2, 11]?
A: 0 to 29%

Q: What about the pest or weed control at 35 g/ha [2, 12] of the same compound?
A: 0 to 29%

Q: What about the pest or weed control at 70 g/ha [2, 12] of the same compound?
A: 0 to 29%

Q: What about the pest or weed control at 140 g/ha [2, 12] of the same compound?
A: 0 to 29%

Q: What about the pest or weed control at 35 g/ha [2, 13] of the same compound?
A: 0 to 29%

Q: What about the pest or weed control at 70 g/ha [2, 13] of the same compound?
A: 0 to 29%

Q: And the pest or weed control at 140 g/ha [2, 13]?
A: 0 to 29%

Q: And the pest or weed control at 35 g/ha [2, 14]?
A: 0 to 29%

Q: What about the pest or weed control at 70 g/ha [2, 14] of the same compound?
A: 0 to 29%

Q: What about the pest or weed control at 140 g/ha [2, 14] of the same compound?
A: 0 to 29%

Q: Which results are given for `COC(=O)c1nc(-c2cc3c(cc2F)OC(F)(F)O3)nc(N)c1OC` [Compound 64]?
A: pest or weed control at 35 g/ha [1, 3]: 0 to 29%; pest or weed control at 70 g/ha [1, 3]: 0 to 29%; pest or weed control at 140 g/ha [1, 3]: 0 to 29%; pest or weed control at 35 g/ha [1, 4]: 0 to 29%; pest or weed control at 70 g/ha [1, 4]: 0 to 29%; pest or weed control at 140 g/ha [1, 4]: 0 to 29%; pest or weed control at 35 g/ha [1, 5]: 0 to 29%; pest or weed control at 70 g/ha [1, 5]: 0 to 29%; pest or weed control at 140 g/ha [1, 5]: 0 to 29%; pest or weed control at 35 g/ha [1, 6]: 0 to 29%; pest or weed control at 70 g/ha [1, 6]: 60 to 74%; pest or weed control at 140 g/ha [1, 6]: 75 to 84%; pest or weed control at 35 g/ha [1, 7]: 0 to 29%; pest or weed control at 70 g/ha [1, 7]: 0 to 29%; pest or weed control at 140 g/ha [1, 7]: 0 to 29%; pest or weed control at 35 g/ha [1, 8]: 75 to 84%; pest or weed control at 70 g/ha [1, 8]: 85 to 94%; pest or weed control at 140 g/ha [1, 8]: 95 to 100%; pest or weed control at 35 g/ha [2, 9]: 0 to 29%; pest or weed control at 70 g/ha [2, 9]: 45 to 59%; pest or weed control at 140 g/ha [2, 9]: 75 to 84%; pest or weed control at 35 g/ha [2, 10]: 0 to 29%; pest or weed control at 70 g/ha [2, 10]: 45 to 59%; pest or weed control at 140 g/ha [2, 10]: 75 to 84%; pest or weed control at 35 g/ha [2, 11]: 30 to 44%; pest or weed control at 70 g/ha [2, 11]: 45 to 59%; pest or weed control at 140 g/ha [2, 11]: 75 to 84%; pest or weed control at 35 g/ha [2, 12]: 0 to 29%; pest or weed control at 70 g/ha [2, 12]: 0 to 29%; pest or weed control at 140 g/ha [2, 12]: 0 to 29%; pest or weed control at 35 g/ha [2, 13]: 0 to 29%; pest or weed control at 70 g/ha [2, 13]: 30 to 44%; pest or weed control at 140 g/ha [2, 13]: 30 to 44%; pest or weed control at 35 g/ha [2, 14]: 30 to 44%; pest or weed control at 70 g/ha [2, 14]: 60 to 74%; pest or weed control at 140 g/ha [2, 14]: 85 to 94%
